Tests used:
[1] = system: Hela cell line; test: Cytotoxicity MTS assay, Hela cell line; assay type: cell-based; conditions: for OD490 Mean / OD490 Well 1 / OD490 Well 2 / OD490 Well 3: Hela cell line; for IC50: MTS assay, 24 h exposure
Procedure, shortened: (§1)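 Cells were seeded at 1000 per well, allowed 24 h, then exposed to compounds at final concentrations of 0.5 to 100 µM for 24 h, with 0.025% DMSO as blank. MTS reagent was added for 2 h at 37 °C and absorbance read at 490 nm. IC50 came from non-linear regression of viability against concentration.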

[2] = system: T24 cell line; test: Cytotoxicity MTS assay, T24 cell line; assay type: cell-based; conditions: for OD490 Mean / OD490 Well 1 / OD490 Well 2 / OD490 Well 3: T24 cell line;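 as to OD490 Mean: blank control wells received 0.025% DMSO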;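 as to OD490 Well 1: blank control wells received 0.025% DMSO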;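 as to OD490 Well 2: blank control wells received 0.025% DMSO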;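 as to OD490 Well 3: blank control wells received 0.025% DMSO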
Procedure, shortened: as §1

SMILES: CCOC(=O)C1=C(C)NC(=S)NC1c1cccc(O)c1 (stereo not drawn) [Monastrol, monastrol, reference compound]
- OD490 Mean ([1]; 0.5μM, first assay): 2.4571
- OD490 Well 1 ([1]; 0.5μM, first assay): 2.3556
- OD490 Well 2 ([1]; 0.5μM, first assay): 2.5698
- OD490 Well 3 ([1]; 0.5μM, first assay): 2.4458
- OD490 Mean ([1]; 0.5μM, second assay): 2.6032
- OD490 Well 1 ([1]; 0.5μM, second assay): 2.5874
- OD490 Well 2 ([1]; 0.5μM, second assay): 2.6523
- OD490 Well 3 ([1]; 0.5μM, second assay): 2.5698
- OD490 Mean ([1]; 0.5μM, third assay): 2.6247
- OD490 Well 1 ([1]; 0.5μM, third assay): 2.6417
- OD490 Well 2 ([1]; 0.5μM, third assay): 2.5470
- OD490 Well 3 ([1]; 0.5μM, third assay): 2.6854
- OD490 Mean ([1]; 1μM, first assay): 2.1630
- OD490 Well 1 ([1]; 1μM, first assay): 2.3365
- OD490 Well 2 ([1]; 1μM, first assay): 2.0131
- OD490 Well 3 ([1]; 1μM, first assay): 2.1393
- OD490 Mean ([1]; 1μM, second assay): 2.5460
- OD490 Well 1 ([1]; 1μM, second assay): 2.5687
- OD490 Well 2 ([1]; 1μM, second assay): 2.5478
- OD490 Well 3 ([1]; 1μM, second assay): 2.5214
- OD490 Mean ([1]; 1μM, third assay): 2.5064
- OD490 Well 1 ([1]; 1μM, third assay): 2.5748
- OD490 Well 2 ([1]; 1μM, third assay): 2.5214
- OD490 Well 3 ([1]; 1μM, third assay): 2.4230
- OD490 Mean ([1]; 10μM, first assay): 2.2162
- OD490 Well 1 ([1]; 10μM, first assay): 2.1607
- OD490 Well 2 ([1]; 10μM, first assay): 2.2561
- OD490 Well 3 ([1]; 10μM, first assay): 2.2317
- OD490 Mean ([1]; 10μM, second assay): 2.5812
- OD490 Well 1 ([1]; 10μM, second assay): 2.6541
- OD490 Well 2 ([1]; 10μM, second assay): 2.5541
- OD490 Well 3 ([1]; 10μM, second assay): 2.5354
- OD490 Mean ([1]; 10μM, third assay): 2.5198
- OD490 Well 1 ([1]; 10μM, third assay): 2.6510
- OD490 Well 2 ([1]; 10μM, third assay): 2.2561
- OD490 Well 3 ([1]; 10μM, third assay): 2.6524
- OD490 Mean ([1]; 25μM, first assay): 2.2546
- OD490 Well 1 ([1]; 25μM, first assay): 2.1835
- OD490 Well 2 ([1]; 25μM, first assay): 2.2875
- OD490 Well 3 ([1]; 25μM, first assay): 2.2928
- OD490 Mean ([1]; 25μM, second assay): 2.5253
- OD490 Well 1 ([1]; 25μM, second assay): 2.6854
- OD490 Well 2 ([1]; 25μM, second assay): 2.3365
- OD490 Well 3 ([1]; 25μM, second assay): 2.5541
- OD490 Mean ([1]; 25μM, third assay): 2.5000
- OD490 Well 1 ([1]; 25μM, third assay): 2.5874
- OD490 Well 2 ([1]; 25μM, third assay): 2.2584
- OD490 Well 3 ([1]; 25μM, third assay): 2.6541
- OD490 Mean ([1]; 50μM, first assay): 2.5586
- OD490 Well 1 ([1]; 50μM, first assay): 2.7188
- OD490 Well 2 ([1]; 50μM, first assay): 2.4306
- OD490 Well 3 ([1]; 50μM, first assay): 2.5263
- OD490 Mean ([1]; 50μM, second assay): 2.4511
- OD490 Well 1 ([1]; 50μM, second assay): 2.3541
- OD490 Well 2 ([1]; 50μM, second assay): 2.5478
- OD490 Well 3 ([1]; 50μM, second assay): 2.4514
- OD490 Mean ([1]; 50μM, third assay): 2.6173
- OD490 Well 1 ([1]; 50μM, third assay): 2.5412
- OD490 Well 2 ([1]; 50μM, third assay): 2.6521
- OD490 Well 3 ([1]; 50μM, third assay): 2.6587
- OD490 Mean ([1]; 100μM, first assay): 2.2182
- OD490 Well 1 ([1]; 100μM, first assay): 2.3464
- OD490 Well 2 ([1]; 100μM, first assay): 2.1470
- OD490 Well 3 ([1]; 100μM, first assay): 2.1612
- OD490 Mean ([1]; 100μM, second assay): 2.5306
- OD490 Well 1 ([1]; 100μM, second assay): 2.4236
- OD490 Well 2 ([1]; 100μM, second assay): 2.6540
- OD490 Well 3 ([1]; 100μM, second assay): 2.5142
- OD490 Mean ([1]; 100μM, third assay): 2.4597
- OD490 Well 1 ([1]; 100μM, third assay): 2.3654
- OD490 Well 2 ([1]; 100μM, third assay): 2.5784
- OD490 Well 3 ([1]; 100μM, third assay): 2.4352
- IC50 ([1]; Homo sapiens, HeLa, 24 h): > 150 µM
- IC50 [1]: > 150 µM
- IC50 ([2]; Homo sapiens, T-24, MTS assay, 24 h exposure): 129 µM
- OD490 Mean ([2]; 0.5μM, first assay): 1.5184
- OD490 Well 1 ([2]; 0.5μM, first assay): 1.3936
- OD490 Well 2 ([2]; 0.5μM, first assay): 1.6757
- OD490 Well 3 ([2]; 0.5μM, first assay): 1.4858
- OD490 Mean ([2]; 0.5μM, second assay): 1.7880
- OD490 Well 1 ([2]; 0.5μM, second assay): 1.9582
- OD490 Well 2 ([2]; 0.5μM, second assay): 1.7425
- OD490 Well 3 ([2]; 0.5μM, second assay): 1.6632
- OD490 Mean ([2]; 0.5μM, third assay): 1.7701
- OD490 Well 1 ([2]; 0.5μM, third assay): 1.9582
- OD490 Well 2 ([2]; 0.5μM, third assay): 1.6852
- OD490 Well 3 ([2]; 0.5μM, third assay): 1.6669
- OD490 Mean ([2]; 1μM, first assay): 1.8525
- OD490 Well 1 ([2]; 1μM, first assay): 1.8866
- OD490 Well 2 ([2]; 1μM, first assay): 1.8580
- OD490 Well 3 ([2]; 1μM, first assay): 1.8130
- OD490 Mean ([2]; 1μM, second assay): 1.7956
- OD490 Well 1 ([2]; 1μM, second assay): 1.8475
- OD490 Well 2 ([2]; 1μM, second assay): 1.7952
- OD490 Well 3 ([2]; 1μM, second assay): 1.7442
- OD490 Mean ([2]; 1μM, third assay): 1.6875
- OD490 Well 1 ([2]; 1μM, third assay): 1.4752
- OD490 Well 2 ([2]; 1μM, third assay): 1.8852
- OD490 Well 3 ([2]; 1μM, third assay): 1.7020
- OD490 Mean ([2]; 10μM, first assay): 1.8245
- OD490 Well 1 ([2]; 10μM, first assay): 1.8141
- OD490 Well 2 ([2]; 10μM, first assay): 1.7506
- OD490 Well 3 ([2]; 10μM, first assay): 1.9088
- OD490 Mean ([2]; 10μM, second assay): 1.6766
- OD490 Well 1 ([2]; 10μM, second assay): 1.5874
- OD490 Well 2 ([2]; 10μM, second assay): 1.5998
- OD490 Well 3 ([2]; 10μM, second assay): 1.8425
- OD490 Mean ([2]; 10μM, third assay): 1.6451
- OD490 Well 1 ([2]; 10μM, third assay): 1.7425
- OD490 Well 2 ([2]; 10μM, third assay): 1.6625
- OD490 Well 3 ([2]; 10μM, third assay): 1.5302
- OD490 Mean ([2]; 25μM, first assay): 1.7708
- OD490 Well 1 ([2]; 25μM, first assay): 1.7726
- OD490 Well 2 ([2]; 25μM, first assay): 1.7434
- OD490 Well 3 ([2]; 25μM, first assay): 1.7965
- OD490 Mean ([2]; 25μM, second assay): 1.7004
- OD490 Well 1 ([2]; 25μM, second assay): 1.7416
- OD490 Well 2 ([2]; 25μM, second assay): 1.7723
- OD490 Well 3 ([2]; 25μM, second assay): 1.5874
- OD490 Mean ([2]; 25μM, third assay): 1.7296
- OD490 Well 1 ([2]; 25μM, third assay): 1.7711
- OD490 Well 2 ([2]; 25μM, third assay): 1.6854
- OD490 Well 3 ([2]; 25μM, third assay): 1.7324
- OD490 Mean ([2]; 50μM, first assay): 1.5876
- OD490 Well 1 ([2]; 50μM, first assay): 1.5372
- OD490 Well 2 ([2]; 50μM, first assay): 1.6410
- OD490 Well 3 ([2]; 50μM, first assay): 1.5845
- OD490 Mean ([2]; 50μM, second assay): 1.6611
- OD490 Well 1 ([2]; 50μM, second assay): 1.6325
- OD490 Well 2 ([2]; 50μM, second assay): 1.6666
- OD490 Well 3 ([2]; 50μM, second assay): 1.6841
- OD490 Mean ([2]; 50μM, third assay): 1.4371
- OD490 Well 1 ([2]; 50μM, third assay): 1.3024
- OD490 Well 2 ([2]; 50μM, third assay): 1.5270
- OD490 Well 3 ([2]; 50μM, third assay): 1.4820
- OD490 Mean ([2]; 100μM, first assay): 1.3979
- OD490 Well 1 ([2]; 100μM, first assay): 1.3668
- OD490 Well 2 ([2]; 100μM, first assay): 1.4841
- OD490 Well 3 ([2]; 100μM, first assay): 1.3428
- OD490 Mean ([2]; 100μM, second assay): 1.3537
- OD490 Well 1 ([2]; 100μM, second assay): 1.3658
- OD490 Well 2 ([2]; 100μM, second assay): 1.3365
- OD490 Well 3 ([2]; 100μM, second assay): 1.3587
- OD490 Mean ([2]; 100μM, third assay): 1.3785
- OD490 Well 1 ([2]; 100μM, third assay): 1.4550
- OD490 Well 2 ([2]; 100μM, third assay): 1.3885
- OD490 Well 3 ([2]; 100μM, third assay): 1.2920
